For experiment [1], the system named is rat. Particulars: normal animals; cited from earlier work.
Experiment [2] deals with mouse. Particulars: normal animals; cited from earlier work.
Experiment [3] concerns central mGlu2 and mGlu3 receptors. Particulars: in vivo; cited from earlier work.
In experiment [4] the test system is C57B16/J mice. Particulars: cited from earlier work.
For experiment [5], the system named is Helpless (H) mice. Particulars: cited from earlier work; for activity in the tail suspension test: Helpless (H) mice; for antidepressant effect in helpless mice: LY341495 acute administration, fluoxetine chronic (21 days) treatment.
The test system of experiment [6] is mice. The note with it: cited from earlier work.
For experiment [7], the system named is mGlu2. Particulars: cited from earlier work.
The target of experiment [8] is T1, rat mGlu2 (Rattus norvegicus, UniProt P31421).
T1 construct: expressed in transfected cells; host or cells: HEK-293 cells stably co-expressing GIRK channels
T1 sequence (P31421 19-872): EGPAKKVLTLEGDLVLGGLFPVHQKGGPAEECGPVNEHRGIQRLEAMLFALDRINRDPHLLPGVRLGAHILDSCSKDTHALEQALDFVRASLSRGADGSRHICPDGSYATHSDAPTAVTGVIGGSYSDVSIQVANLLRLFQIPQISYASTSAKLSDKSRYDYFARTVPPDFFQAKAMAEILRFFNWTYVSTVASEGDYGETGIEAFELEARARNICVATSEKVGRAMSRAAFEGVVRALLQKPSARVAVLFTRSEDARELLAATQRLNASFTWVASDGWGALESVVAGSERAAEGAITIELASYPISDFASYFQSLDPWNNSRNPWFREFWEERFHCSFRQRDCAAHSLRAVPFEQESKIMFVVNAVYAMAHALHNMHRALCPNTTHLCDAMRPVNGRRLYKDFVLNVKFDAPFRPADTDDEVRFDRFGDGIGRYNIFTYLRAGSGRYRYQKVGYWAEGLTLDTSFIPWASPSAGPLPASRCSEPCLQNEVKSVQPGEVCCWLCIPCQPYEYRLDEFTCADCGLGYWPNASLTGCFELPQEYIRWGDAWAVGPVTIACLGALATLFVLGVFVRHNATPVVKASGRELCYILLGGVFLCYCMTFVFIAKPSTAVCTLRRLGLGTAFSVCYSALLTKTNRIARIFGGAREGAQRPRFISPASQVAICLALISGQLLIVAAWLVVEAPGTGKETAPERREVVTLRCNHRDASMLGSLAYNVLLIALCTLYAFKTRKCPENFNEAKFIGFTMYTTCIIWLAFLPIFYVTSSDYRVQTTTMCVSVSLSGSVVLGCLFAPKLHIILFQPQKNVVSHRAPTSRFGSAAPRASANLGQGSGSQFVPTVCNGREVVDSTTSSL
The experiment is described as follows: mGlu GIRK cell-based thallium flux assay, rat mGlu2. The note with it: HEK-293 cells co-expressing rat mGlu2 and GIRK, EC80 glutamate. Put shortly: (§1)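 HEK-293 cells stably co-expressing GIRK with human mGlu3, human mGlu2 or rat mGlu2 were loaded 1 h at 25° C with Thallos dye, then given compound (30 μM to 1.5 nM final, 10-point) for 2 min 20 s before EC80 glutamate plus thallium. Baseline-corrected fluorescence slope, normalized to ECmax glutamate, fitted to 4-parameter logistic for IC50.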

The target of experiment [9] is Rat mGlu3 (UniProt P31422). The experiment is described as follows: mGlu GIRK cell-based thallium flux assay, mGlu3. The note with it: HEK-293 cells co-expressing mGlu3 and GIRK, EC80 glutamate.
For experiment [10] the following is noted: treatment for 7 days; cited from earlier work.
Experiment [11] concerns olfactory bulbectomized rats. Particulars: repeated administration for 14 days; cited from earlier work.
The test system of experiment [12] is social isolation-reared mice. Particulars: cited from earlier work.
For experiment [13] the following is noted: in vivo; cited from earlier work.
The target of experiment [14] is T2, human mGlu2 (Homo sapiens, UniProt Q14416).
T2 construct: expressed in transfected cells; host or cells: HEK-293 cells stably co-expressing GIRK channels
T2 sequence (Q14416 19-872): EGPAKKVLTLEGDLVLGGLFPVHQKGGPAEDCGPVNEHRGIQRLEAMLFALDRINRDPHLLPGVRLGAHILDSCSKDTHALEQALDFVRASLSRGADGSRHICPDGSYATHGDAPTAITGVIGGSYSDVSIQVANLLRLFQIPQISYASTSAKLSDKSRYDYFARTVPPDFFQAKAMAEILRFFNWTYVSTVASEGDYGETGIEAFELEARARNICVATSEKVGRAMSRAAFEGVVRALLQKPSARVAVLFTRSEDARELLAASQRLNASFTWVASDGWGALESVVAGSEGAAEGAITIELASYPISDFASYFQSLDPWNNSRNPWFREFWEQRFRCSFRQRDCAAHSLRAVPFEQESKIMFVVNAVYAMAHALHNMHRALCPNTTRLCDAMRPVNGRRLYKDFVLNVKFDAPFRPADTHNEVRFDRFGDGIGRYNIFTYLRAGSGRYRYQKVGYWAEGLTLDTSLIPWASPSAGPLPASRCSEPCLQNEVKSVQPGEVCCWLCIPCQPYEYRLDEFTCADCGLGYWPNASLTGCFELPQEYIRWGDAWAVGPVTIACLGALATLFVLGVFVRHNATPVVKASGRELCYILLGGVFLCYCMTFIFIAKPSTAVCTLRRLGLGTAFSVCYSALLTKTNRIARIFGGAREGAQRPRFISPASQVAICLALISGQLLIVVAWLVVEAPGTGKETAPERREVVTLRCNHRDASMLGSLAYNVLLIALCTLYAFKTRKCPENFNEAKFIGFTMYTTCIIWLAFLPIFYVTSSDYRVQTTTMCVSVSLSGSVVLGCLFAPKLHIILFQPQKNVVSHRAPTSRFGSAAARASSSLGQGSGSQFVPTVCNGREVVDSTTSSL
The experiment is described as follows: mGlu GIRK cell-based thallium flux assay, human mGlu2. The note with it: HEK-293 cells co-expressing human mGlu2 and GIRK, EC80 glutamate. Put shortly:
as §1

For experiment [15], the system named is Dutch APP transgenic mice. The note with it: cited from earlier work.

Each structure is given as a SMILES string.

Usually IC50 stands for the concentration needed to halve the response being measured.

In the case of `N[C@](CC1c2ccccc2Oc2ccccc21)(C(=O)O)[C@H]1C[C@@H]1C(=O)O` [LY341495], the “antidepressant-like effects in rat forced swim test” value in [1] is reported as “Antidepressant-like effects”. Moreover, in experiment [2], the “antidepressant-like effects in mouse tail-suspension test” value was “Antidepressant-like effects”. Moreover, the “hypolocomotor effect of mGlu2/3 agonist (LY379268)” value in experiment [3] is on record as “achieved the same result”. Further, the “immobility time in the FST” value in experiment [4] is on record as “dose-dependently reduced immobility time”. In addition, in experiment [5], the “activity in the tail suspension test” value is listed as “active” and the “antidepressant effect in helpless mice” value is reported as “potent antidepressant effect”. The marble-burying behavior entry in experiment [6] is listed as “significantly reduce marble-burying behavior”. In addition, the Aβ-induced neurodegeneration result in experiment [7] is given as “this effect was prevented”.

With `Cc1c(-c2cc3c(cc2-c2ccc(F)cc2)C(=O)NC3)ccc2[nH]ncc12` [Compound 9, 6-(4-fluorophenyl)-5-(4-methyl-1H-indazol-5-yl)isoindolin-1-one], the IC50 came out at 1280 nM in experiment [8] and 1980 nM in [9].

In the case of `O=C1NCc2cc(-c3ccn(C4CC4)n3)c(-c3ccc(F)cc3F)cc21` [Compound 108, 5-(1-cyclopropyl-1H-pyrazol-3-yl)-6-(2,4-difluorophenyl)isoindolin-1-one], the IC50 in experiment [8] amounted to 347 nM; in [9] it was 4790 nM.

In the case of `Cc1cc(-c2cc3c(cc2-c2ccc(F)cc2F)C(=O)NC3)c(C#N)n1C` [Compound 98, 3-(6-(2,4-difluorophenyl)-1-oxoisoindolin-5-yl)-1,5-dimethyl-1H-pyrrole-2-carbonitrile], the IC50 was determined as 136 nM in experiment [8] and 2620 nM in [9].

On to `N#Cc1cccc(-c2cc3c(cc2-c2ccc(F)cc2F)C(=O)NC3)c1F` [Compound 94, 3-(6-(2,4-difluorophenyl)-1-oxoisoindolin-5-yl)-2-fluorobenzonitrile], for which the IC50 in experiment [8] was 477 nM; in experiment [9], above 10000 nM.

Turning to `Cc1ccc(-c2cc3c(cc2-c2ccc(F)cc2F)C(=O)NC3)cn1` [Compound 69, 6-(2,4-difluorophenyl)-5-(6-methylpyridin-3-yl)isoindolin-1-one], the IC50 in experiment [8] was 659 nM; in experiment [9], above 10000 nM.

Consider `CNCCC(Oc1ccc(C(F)(F)F)cc1)c1ccccc1` (stereo not drawn) [fluoxetine], for which, in experiment [5], the “antidepressant effect in helpless mice” value was “full antidepressant effect”.

`N[C@]1(C(=O)O)[C@H]2[C@@H](C[C@H]1OCc1ccc(Cl)c(Cl)c1)[C@]2(F)C(=O)O` [MGS0039]: the “antidepressant-like effects in rat forced swim test” value in experiment [1] is listed as “Antidepressant-like effects”. In [2], the “antidepressant-like effects in mouse tail-suspension test” value was “Antidepressant-like effects”. Moreover, in experiment [10], the “number of escape failures, learned helplessness test” value was “significantly reduced the number of escape failures”. Moreover, in [11], the “hyperactivity in the open field test” value is listed as “attenuated the hyperactivity” and the “learning deficit in the passive avoidance test” value is “attenuated the learning deficit”. The “immobility in the FST” value in [12] is recorded as “reversed the increased immobility”. Also, in experiment [6], the marble-burying behavior result was “reduced marble-burying behavior in a significant and dose dependent manner”; the spontaneous locomotor activity entry is on record as “no significant change”. For the same molecule, the “freezing behavior, CFS model” value in [13] is on record as “significantly decreased freezing behavior”.

For `Cc1ccc(C#N)cc1-c1cc2c(cc1-c1ccc(F)cc1F)C(=O)NC2` [Compound 96, 3-(6-(2,4-difluorophenyl)-1-oxoisoindolin-5-yl)-4-methylbenzonitrile], the IC50 in experiment [8] was 585 nM; in experiment [9], above 10000 nM.

In the case of `COc1cncc(-c2cc3c(cc2-c2ccc(F)cc2F)C(=O)NC3)c1` [Compound 101, 6-(2,4-difluorophenyl)-5-(5-methoxypyridin-3-yl)isoindolin-1-one], the IC50 was 534 nM in [8] and above 10000 nM in experiment [9].

Take `O=C1NCc2cc(-c3cnc4[nH]ccc4c3)c(-c3ccc(F)cc3F)cc21` [Compound 87, 6-(2,4-difluorophenyl)-5-(1H-pyrrolo[2,3-b]pyridin-5-yl)isoindolin-1-one]: the figures for the IC50 in experiment [8] and in experiment [9] were 618 nM and above 10000 nM, respectively.

Consider `Cc1c(-c2cc3c(cc2-c2ccc(F)cc2F)C(=O)NC3)cc(C#N)n1C` [Compound 90, 4-(6-(2,4-difluorophenyl)-1-oxoisoindolin-5-yl)-1,5-dimethyl-1H-pyrrole-2-carbonitrile], for which the IC50 in [14] came to 185 nM; in [8] it was 225 nM.

As to `Cc1ccc(-c2cc3c(cc2-c2ccc(F)cc2)C(=O)NC3)nc1` [Compound 52, 6-(4-fluorophenyl)-5-(5-methylpyridin-2-yl)isoindolin-1-one], the IC50 is 953 nM in experiment [8] and above 10000 nM in experiment [9].

For the molecule `Cc1cc(-c2cccc(C3=Nc4cc(C)c(C(F)(F)F)cc4NC(=O)C3)c2)cc(C)n1` [RO4491533], the “hypolocomotor effect of mGlu2/3 agonist (LY379268)” value in experiment [3] was “reversed the hypolocomotor effect”. For the same molecule, the “immobility time in the FST” value in [4] is on record as “dose-dependently reduced immobility time”. For the same molecule, in experiment [5], the “activity in the tail suspension test” value is recorded as “active”.

As for `Cn1cc2cc(-c3cc4c(cc3-c3ccc(F)cc3)C(=O)NC4)ccc2n1` [Compound 7, 6-(4-fluorophenyl)-5-(2-methyl-2H-indazol-5-yl)isoindolin-1-one], the IC50 in experiment [14] was 1560 nM; in experiment [8] it was above 10000 nM.

Regarding `CCCCCCCOC(=O)[C@@]1(F)[C@@H]2C[C@@H](OCc3ccc(Cl)c(Cl)c3)[C@@](N)(C(=O)O)[C@@H]21` [BCI-838], the “duration of inhibition of group II mGlu receptors by brain concentration of active metabolite BCI-632” value in experiment [15] (once-daily oral dosing) is 22 h. For the same molecule, in experiment [15] (three months of treatment, Dutch APP transgene), the “learning and memory impairment” value is “reversed Dutch APP transgene-associated learning and memory impairment”. In addition, the anxiolytic effects result in experiment [15] (three months of treatment) is recorded as “provided anxiolytic effects”. Besides, the “levels of monomeric and oAβ peptides in the hippocampus and cortex” value in [15] (three months of treatment, two AD mouse models) was “decreased the levels of monomeric and oAβ peptides”. The “hippocampal progenitor cell proliferation” value in experiment [15] (wild-type and Alzheimer's diseased mice, 3 months) is reported as “stimulated hippocampal progenitor cell proliferation”.

In the case of `O=C1NCc2cc(-c3ccc4ocnc4c3)c(-c3ccc(F)cc3F)cc21` [Compound 24, 5-(benzo[d]oxazol-5-yl)-6-(2,4-difluorophenyl)isoindolin-1-one], the IC50 in experiment [8] was 953 nM; in experiment [9], above 10000 nM.

`O=C1NCc2cc(C3CCOCC3)c(-c3ccc(F)cc3)cc21` [Compound 64, 6-(4-fluorophenyl)-5-(tetrahydro-2H-pyran-4-yl)isoindolin-1-one]: the IC50 was 762 nM in [8] and above 10000 nM in [9].

In the case of `Cc1ncc(-c2cc3c(cc2-c2ccc(F)cc2)C(=O)NC3)s1` [Compound 5, 6-(4-fluorophenyl)-5-(2-methylthiazol-5-yl)isoindolin-1-one], the IC50 was 839 nM in experiment [8] and 5820 nM in experiment [9].

Regarding `O=C1NCc2cc(CN3CC(O)(C(F)(F)F)C3)c(-c3ccc(F)cc3F)cc21` [Compound A12, 6-(2,4-difluorophenyl)-5-((3-hydroxy-3-(trifluoromethyl)azetidin-1-yl)methyl)isoindolin-1-one], the IC50 in experiment [14] is 528 nM; in [8], above 10000 nM.

Consider `Cc1cc(C#N)cc(-c2cc3c(cc2-c2ccc(F)cc2F)C(=O)NC3)c1` [Compound 91, 3-(6-(2,4-difluorophenyl)-1-oxoisoindolin-5-yl)-5-methylbenzonitrile], for which the results for the IC50 in experiment [8] and in experiment [9] were 697 nM and above 10000 nM, respectively.

For the molecule `O=C1NCc2cc(-c3cccnc3C3CC3)c(-c3ccc(F)cc3F)cc21` [Compound 74, 5-(2-cyclopropylpyridin-3-yl)-6-(2,4-difluorophenyl)isoindolin-1-one], in experiment [9], the IC50 was above 10000 nM.

Take `CCS(=O)(=O)N(Cc1cccnc1)c1cccc(-c2ccc(C#N)cc2)c1` [LY566332]: the Aβ-induced neurodegeneration entry in [7] is given as “amplified Aβ-induced neurodegeneration”.

These data come from patent publication US20260098030A1, “NEGATIVE ALLOSTERIC MODULATORS OF METABOTROPIC GLUTAMATE RECEPTOR 2” (Vanderbilt University, priority 2022, published 2026).
